Series [1] addresses NDM-1 Enzyme (Klebsiella pneumoniae, UniProt C7C422). Put plainly: Imipenem hydrolysis followed by UV absorbance slope, NDM-1 enzyme. Format: biochemical. Particulars: for inhibition at 5 µM: C 5 μM. The procedure: (§1) These tests were conducted by comparing UV absorbance slope measurements of impenem alone, and then imipenem with the concerned azetidinimines at given concentrations in the presence of the enzyme. It was thus possible to monitor the hydrolysis of imipenem. Lower the value of the slope, the higher is the percentage of inhibition of the enzyme.

Series [2] concerns the target KPC Enzyme (Klebsiella pneumoniae, UniProt Q9F663). Briefly: Imipenem hydrolysis followed by UV absorbance slope, KPC enzyme. Format: biochemical. As to conditions: for inhibition at 10 µM / KPC Enzyme Inhibition %: C 10 μM; for inhibition at 5 µM: C 5 μM. The procedure: as §1
In series [3] the target is OXA-48 Enzyme (Klebsiella pneumoniae, UniProt Q6XEC0). Briefly: Imipenem hydrolysis followed by UV absorbance slope, OXA-48 enzyme. It is filed as biochemical. As to conditions: for inhibition at 10 µM / OXA-48 Enzyme Inhibition %: C 10 μM; for OXA-48 Enzyme, effect in words: Inhibition %, IC50. The procedure:
as §1

A short description of series [4]: Stability tests of imipenem with increasing concentrations of tested molecules. The procedure: as §1
Stability tests of imipenem with increasing concentrations of tested molecules of the present invention (T4#1, i.e. compound #1 of table 4; T4#7 i.e. compound #7 of table 4; T4#9 i.e. compound #9 of table 4; T4#2 i.e. compound #2 of table 4) were also conducted (Table 2).

Sequence of NDM-1 Enzyme (C7C422 29-270, looked up, species assumed): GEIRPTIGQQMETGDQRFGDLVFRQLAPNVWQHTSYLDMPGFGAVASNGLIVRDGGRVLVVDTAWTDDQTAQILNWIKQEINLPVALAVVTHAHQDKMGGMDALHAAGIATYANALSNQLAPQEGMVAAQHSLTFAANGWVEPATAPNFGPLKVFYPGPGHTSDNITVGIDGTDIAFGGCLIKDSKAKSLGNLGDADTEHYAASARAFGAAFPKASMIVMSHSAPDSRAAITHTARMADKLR
Sequence of OXA-48 Enzyme (Q6XEC0 23-265, looked up, species assumed): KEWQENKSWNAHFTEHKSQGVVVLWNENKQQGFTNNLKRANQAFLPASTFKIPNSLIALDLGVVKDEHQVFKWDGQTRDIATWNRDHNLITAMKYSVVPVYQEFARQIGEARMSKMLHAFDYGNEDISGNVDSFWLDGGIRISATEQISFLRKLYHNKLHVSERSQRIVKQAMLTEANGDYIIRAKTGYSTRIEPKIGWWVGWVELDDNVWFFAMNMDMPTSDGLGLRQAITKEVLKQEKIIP
Sequence of KPC Enzyme (Q9F663 25-293, looked up): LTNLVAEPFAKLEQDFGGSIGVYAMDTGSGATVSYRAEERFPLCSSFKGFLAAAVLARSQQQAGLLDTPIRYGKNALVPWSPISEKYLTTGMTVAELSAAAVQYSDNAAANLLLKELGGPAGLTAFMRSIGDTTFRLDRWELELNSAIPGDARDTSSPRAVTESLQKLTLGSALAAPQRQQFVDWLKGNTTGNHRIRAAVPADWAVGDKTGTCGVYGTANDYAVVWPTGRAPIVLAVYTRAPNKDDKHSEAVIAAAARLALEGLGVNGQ

Turning to `c1ccc(/N=C2\CC(c3ccccc3)N2c2ccc3c(c2)OCCO3)cc1` (stereo not shown), the results for the IC50 in series [1], in series [2] and in series [3] were 1.3 µM, 5 to 10 µM and more than 50 µM, respectively.
The corresponding values for `COc1ccc(N2/C(=N/c3ccc(I)cc3)CC2c2ccccc2)cc1` (stereo not shown) are 1.1 µM, 3.3 µM and 9.2 µM.
On the same counts, the results for `COc1ccc(N2/C(=N/c3ccc(I)cc3)CC2c2cc(Cl)cc(Cl)c2)cc1` (stereo not shown) are 0.5 µM, 2.9 µM and 8.5 µM.
On to `[N-]=[N+]=NCc1ccc(C2C/C(=N\c3ccccc3)N2c2ccccc2)cc1` (stereo not shown), for which the inhibition at 10 µM is 100% in series [1] (C 10 μM) and 89% in series [2]. Moreover, the IC50 in series [3] was more than 50 µM.
As for `CCOc1ccc(N2/C(=N/c3ccccc3)CC2c2ccccc2)cc1` (stereo not shown), the IC50 in series [1] is 0.5 to 5 µM; in series [2], less than 5 µM; in series [3] it was more than 10 µM. In addition, the inhibition at 5 µM in series [1] and in series [2] was 100% in each case. This compound also displayed an inhibition at 10 µM in series [3] of 45%.
As to `COc1cc(N2/C(=N/c3ccccc3)CC2c2ccccc2)cc(OC)c1OC` (stereo not shown) [T4#7, (E)-N-(4-phenyl-1-(3,4,5-trimethoxyphenyl)azetidin-2-ylidene)aniline], the “Slope (stability test of imipenem)” value in series [4] (C 1 μM of tested molecule) is given as 0; in series [4] (C 10 μM of tested molecule) it was 10; in series [4] (C 100 μM of tested molecule) it was 174.
Take `CC(C)(C)OC(=O)COc1ccc(N2/C(=N/c3ccccc3)CC2c2ccc(Cl)cc2)cc1` (stereo not shown): the IC50 is 2.6 µM in series [1], 1.3 µM in series [2] and more than 50 µM in series [3].
Consider `COc1ccc(C2C/C(=N\c3ccccc3)N2c2ccccc2)cc1` (stereo not shown) [T4#2, (E)-N-(4-(4-methoxyphenyl)-1-phenylazetidin-2-ylidene)aniline], for which the “Slope (stability test of imipenem)” value in series [4] (C 1 μM of tested molecule) is 3; in series [4] (C 10 μM of tested molecule), 30; in series [4] (C 100 μM of tested molecule), 321.
Turning to `COc1ccccc1N1/C(=N/c2ccccc2)CC1c1ccc(Cl)cc1` (stereo not shown), the IC50 is 1.1 µM in series [1], 5 to 10 µM in series [2] and more than 50 µM in series [3].
As to `COc1ccc(N2/C(=N/c3ccccc3)CC2c2ccc(F)cc2)cc1` (stereo not shown), the inhibition at 10 µM was found to be 9% in series [1] (C 10 μM) and 10% in series [2]. The “OXA-48 Enzyme, effect in words” value in series [3] is “No reported effect”.
As for `COc1ccc(N2/C(=N/c3ccccc3)CC2c2ccccc2)cc1` (single isomer, unassigned) [Enantiomer 2], the 50% inhibitory concentration (IC50) in series [1] is less than 5 µM; in series [2], more than 10 µM. Besides, the inhibition at 10 µM in series [1] (C 10 μM) stood at 95%. In addition, the “KPC Enzyme Inhibition %” value in series [2] was determined as 45%.
In the case of `ClCc1ccc(C2C/C(=N\c3ccccc3)N2c2ccccc2)cc1` (stereo not shown), the IC50 was 2.5 µM in series [1] and 6 µM in series [2]. Moreover, the “OXA-48 Enzyme Inhibition %” value in series [3] is listed as “No measurable effect at 10 μM”.
In series [1], `COc1ccc(N2/C(=N/c3ccccc3)CC2c2ccc(Cl)cc2)cc1` (stereo not shown) [drawing 76] yielded an IC50 of 2 to 5 µM. Testing at 10 µM in series [1] (C 10 μM) gave an inhibition of 96%. The inhibition at 50 µM amounted to 44% in series [2] (C 50 μM) and 21% in series [3] (C 50 μM). Also, the “OXA-48 Enzyme IC50” value in series [3] is “Solubility problems”.
For the compound `c1ccc(/N=C2\CC(c3ccccc3)N2c2ccc3c(c2)OCO3)cc1` (stereo not shown), the IC50 in series [1] was 5 µM. Further, the inhibition at 10 µM in series [2] amounted to 6%; in series [3] it was 20%.
Consider `COc1ccc(N2/C(=N/c3ccc(I)cc3)CC2c2ccc(Cl)cc2)cc1` (stereo not shown), for which the values for the IC50 in series [1], in series [2] and in series [3] were 0.7 µM, 2.7 µM and 7.5 µM, respectively.
The corresponding values for `COc1cccc(N2/C(=N/c3ccccc3)CC2c2ccc(Cl)cc2)c1` (stereo not shown) are 0.4 µM, 2.5 to 5 µM and more than 50 µM.
For the compound `c1ccc(/N=C2\CC(c3ccccc3)N2c2ccccc2)cc1` (stereo not shown), the figures for the IC50 in series [1] and in series [2] were 1.2 µM and 6 µM, respectively. Also, in series [3], the “OXA-48 Enzyme Inhibition %” value is “No measurable effect at 10 μM”.
For `COc1ccc(N2/C(=N/c3ccccc3)CC2c2ccccc2)cc1OC` (stereo not shown), the IC50 in series [1] fell in the range of 5 to 10 µM. In addition, the inhibition at 10 µM in series [2] came out at 17%; in series [3], 9%.
On to `O=C(O)c1ccc(C2C/C(=N\c3ccccc3)N2c2ccccc2)cc1` (stereo not shown), for which the figures for the IC50 in series [1], in series [2] and in series [3] were 0.7 µM, more than 50 µM and more than 50 µM, respectively.
As to `COc1ccc(N2/C(=N/c3ccccc3)CC2c2ccccc2)cc1` (stereo not shown) [drawing 74], the IC50 was 2 to 5 µM in series [1] and approximately 7 µM in series [2]. The inhibition at 10 µM in series [1] (C 10 μM) is 90%. Further, the “OXA-48 Enzyme, effect in words” value in series [3] is on record as “No reported effect”.
In turn, `COc1ccc(N2/C(=N/c3ccc(C(F)(F)F)cc3)CC2c2ccc(Cl)cc2)cc1` (stereo not shown) returned an inhibition at 10 µM in series [1] (C 10 μM) of 100%. Further, the IC50 was 3.6 µM in series [2] and more than 50 µM in series [3].
With `CSc1ccc(N2/C(=N/c3ccccc3)CC2c2ccccc2)cc1` (stereo not shown), the 50% inhibitory concentration (IC50) is less than 1 µM in series [1] and less than 10 µM in series [2]. The same compound came in with an inhibition at 5 µM in series [1] of 98%. Further, at 20 µM the inhibition in series [2] (C 20 μM) was 82%. The compound also had an inhibition at 10 µM in series [3] of 15%.
On to `Oc1ccc(N2/C(=N/c3ccccc3)CC2c2ccccc2)cc1` (stereo not shown), for which the IC50 in series [1] was 0.8 µM; in series [2], more than 50 µM; in series [3], more than 10 µM.
The corresponding values for `Oc1ccc(N2/C(=N/c3ccccc3)CC2c2ccc(Cl)cc2)cc1` (stereo not shown) are 3.6 µM, 5 to 7 µM and more than 10 µM.
`c1ccc(COc2ccc(N3/C(=N/c4ccccc4)CC3c3ccccc3)cc2)cc1` (stereo not shown) had an IC50 in series [1] of 0.4 µM. The inhibition at 10 µM in series [2] stood at 86%; in series [3], 31%.
For the compound `O=C(O)COc1ccc(N2/C(=N/c3ccccc3)CC2c2ccc(Cl)cc2)cc1` (stereo not shown), the concentration for half-maximal inhibition (IC50) in series [1] is 0.6 µM; in series [2], more than 50 µM; in series [3], more than 50 µM.
For the compound `COc1ccc(N2/C(=N/c3ccccc3)CC2c2ccccc2)cc1` (single isomer, unassigned) [Enantiomer 1], the results for the half-maximal inhibitory concentration (IC50) in series [1] and in series [2] were less than 5 µM and less than 10 µM, respectively. Further, the “NDM-1 Enzyme Inhibition %” value in series [1] (C 10 μM) came to 97%. Also, the “KPC Enzyme Inhibition %” value in series [2] is 70%.
For the compound `CCOc1ccc(N2/C(=N/c3ccc(OC)cc3)CC2c2ccc3ccccc3c2)cc1` (stereo not shown), the IC50 in series [1] came out at 0.6 µM; in series [2] it was 2.4 µM; in series [3], 7.4 µM.
On the same counts, the results for `COc1ccc(N2/C(=N/c3ccc(Cl)cc3)CC2c2ccc(Cl)cc2)cc1` (stereo not shown) are 0.5 µM, 2.9 µM and more than 50 µM.
For the compound `COc1ccc(N2/C(=N/c3ccccc3)CC2c2ccc3ccccc3c2)cc1` (stereo not shown), the half-inhibitory concentration (IC50) in series [1] lay within 2.5 to 5 µM; in series [2], 5 to 7 µM; in series [3], 10 to 20 µM. This compound returned an inhibition at 5 µM in series [1] of 94%. This compound also had an inhibition at 10 µM in series [2] of 99%. In series [3] (C 20 μM), this compound registered an inhibition at 20 µM of 94%.
In turn, `COc1ccc(N2/C(=N/c3ccc(Cl)cc3)CC2c2ccccc2)cc1` (stereo not shown) returned an inhibition at 10 µM in series [1] (C 10 μM) of 100%. Also, the half-maximal inhibitory concentration (IC50) in series [2] is 2 µM; in series [3], more than 50 µM.
`COC(=O)c1ccc(C2C/C(=N\c3ccccc3)N2c2ccccc2)cc1` (stereo not shown) yielded a half-inhibitory concentration (IC50) in series [1] of 4.8 µM. Also, the values for the inhibition at 10 µM in series [2] and in series [3] were 6% and 3.5%, respectively.
Regarding `COc1cc(N2/C(=N/c3ccccc3)CC2c2ccccc2)cc(OC)c1OC` (stereo not shown) [drawing 75], the IC50 in series [1] and in series [2] was more than 50 µM in each case. In series [1] (C 50 μM), the inhibition at 50 µM is 78%. Further, the “OXA-48 Enzyme, effect in words” value in series [3] is listed as “No reported effect”.
On to `COc1ccc(N2/C(=N/c3ccccc3)CC2c2cccnc2)cc1` (stereo not shown), for which the half-maximal inhibitory concentration (IC50) in series [1] and in series [2] was more than 100 µM in each case. The inhibition at 100 µM came to 23% in series [1] (C 100 μM) and 12% in series [2] (C 100 μM). Further, in series [3], the “OXA-48 Enzyme, effect in words” value is recorded as “No reported effect”.
Take `CC(C)(C)OC(=O)NCCOC(=O)c1ccc(C2C/C(=N\c3ccccc3)N2c2ccccc2)cc1` (stereo not shown): the concentration for half-maximal inhibition (IC50) in series [1] is 2.9 µM; in series [3] it was more than 50 µM.
Turning to `COc1ccc(N2/C(=N/c3ccccc3)CC2c2cc(Cl)cc(Cl)c2)cc1` (stereo not shown), the 50% inhibitory concentration (IC50) in series [1] and in series [2] was 2.5 to 5 µM in each case. Also, the figures for the inhibition at 5 µM in series [1], in series [2] and in series [3] (C 5 μM) were 97%, 84% and 15%, respectively.
`COc1ccc(C2C/C(=N\c3ccccc3)N2c2ccccc2)cc1` (stereo not shown) [drawing 77] registered a 50% inhibitory concentration (IC50) in series [1] of more than 10 µM. In series [1] (C 20 μM), at 20 µM the inhibition was 58%. In addition, the “KPC Enzyme, effect in words” value in series [2] (Inhibition %, IC50) is “No reported effect”. Also, the “OXA-48 Enzyme, effect in words” value in series [3] is given as “No reported effect”.
With `COc1ccc(C2C/C(=N\c3ccccc3)N2c2ccc(OC)cc2)cc1` (stereo not shown), the IC50 in series [1] fell in the range of 5 to 10 µM. In addition, the figures for the inhibition at 10 µM in series [1] (C 10 μM), in series [2] and in series [3] were 67%, 7% and 3%, respectively.
On to `COc1cccc(N2/C(=N/c3ccccc3)CC2c2ccccc2)c1` (stereo not shown), for which the IC50 in series [1] is 1.3 µM; in series [2], 5 to 10 µM; in series [3] it was more than 50 µM.
In the case of `CCOc1ccc(N2/C(=N/c3ccc(I)cc3)CC2c2ccc3ccccc3c2)cc1` (stereo not shown), the concentration for half-maximal inhibition (IC50) in series [1] stood at 0.5 µM; in series [2], 2.5 µM; in series [3] it was 6.2 µM.
In turn, `CC(C)(C)OC(=O)c1ccc(C2C/C(=N\c3ccccc3)N2c2ccccc2)cc1` (stereo not shown) registered an IC50 in series [1] of 1.8 µM. The inhibition at 10 µM amounted to 45% in series [2] and 32% in series [3].

Broadly, the IC50 is the concentration at which inhibition is half-maximal. Read a low IC50 as higher potency. For orientation: inhibition means the change of the read-out against control, counted positive when it falls. Lower therefore signals a weak effect.

The values above are taken from US11174226B2, “Azetidinimines as carbapenemases inhibitors” (priority 2015, dated 2021).
